The target of one assay is T1, human recombinant renin (Homo sapiens, UniProt P00797).
T1 sequence (P00797 67-406): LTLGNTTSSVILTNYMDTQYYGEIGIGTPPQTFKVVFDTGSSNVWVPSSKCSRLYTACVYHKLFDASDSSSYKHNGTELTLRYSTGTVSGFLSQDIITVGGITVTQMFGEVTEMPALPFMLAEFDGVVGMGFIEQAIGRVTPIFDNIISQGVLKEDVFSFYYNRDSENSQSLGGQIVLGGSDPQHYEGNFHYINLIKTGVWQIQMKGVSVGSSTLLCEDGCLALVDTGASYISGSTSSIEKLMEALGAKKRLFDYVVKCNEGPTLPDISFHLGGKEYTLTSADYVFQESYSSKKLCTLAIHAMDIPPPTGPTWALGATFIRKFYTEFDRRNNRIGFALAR
Nature of the assay: Inhibition of human recombinant renin (buffer), enzymatic in vitro assay with Ang I EIA. In kind it is biochemical. Particulars: assay buffer PBS, 1 mM EDTA, 0.1% BSA; human recombinant renin 40 pM. The protocol:
Inhibition of Human Recombinant Renin
The enzymatic in vitro assay was performed in 384-well polypropylene plates (Nunc). The assay buffer consisted of PBS (Gibco BRL) including 1 mM EDTA and 0.1% BSA. The reaction mixture were composed of 47.5 μL per well of an enzyme mix and 2.5 μL of renin inhibitors in DMSO. The enzyme mix was premixed at 4° C. and consists of the following components: • human recombinant renin (40 pM) • synthetic human angiotensin(1-14) (0.5 μM) • hydroxyquinoline sulfate (1 mM) The mixtures were then incubated at 37° C. for 3 h. The enzyme reaction was stopped by placing the reaction plate on wet ice.
To determine the enzymatic activity and its inhibition, the accumulated Ang I was detected by an enzyme immunoassay (EIA) in 384-well plates (Nunc). 5 μL of the reaction mixture or standards were transferred to immuno plates which were previously coated with a covalent complex of Ang I and bovine serum albumin (Ang I-BSA). 75 μL of Ang I-antibodies in assay buffer above including 0.01% Tween 20 were added and the plates were incubated at 4° C. overnight.
An alternative protocol could be used by stopping the enzymatic reaction with 0.02N final concentration of HCl. 5 μL of the reaction mixture or standards were transferred to immuno plates and 75 μL of Ang I-antibodies in assay buffer above including 0.01% Tween 20 were added and the plates were incubate at RT for 4 h.
The plates were washed 3 times with PBS including 0.01% Tween 20, and then incubated for 2 h at RT with an anti rabbit-peroxidase coupled antibody (WA 934, Amersham).

For assay [1], the target named is T2, renin in human plasma (human recombinant renin) (Homo sapiens, UniProt P00797).
T2 construct: host or cells: human plasma from 10 normal donors as matrix
T2 sequence (P00797 67-406): T1 sequence (P00797 67-406)
Nature of the assay: Inhibition of renin in human plasma, enzymatic in vitro assay with Ang I EIA. In kind it is biochemical. Particulars: human plasma from 10 normal donors; human recombinant renin 3 pM. As for the experimental part:
Inhibition of Renin in Human Plasma
The enzymatic in vitro assay was performed in 384-well polypropylene plates (Nunc). The assay buffer consisted of PBS (Gibco BRL) including 1 mM EDTA and 0.1% BSA. The reaction mixture was composed of 80 μL per well of human plasma, enzyme, Ang I-antibodies mix and 5 μL of renin inhibitors in DMSO. The human plasma mix was premixed at 4° C. and consists of • human plasma from 10 normal donors • human recombinant renin (3 pM) • Ang I-antibodies. The mixtures were then incubated at 37° C. for 2 h.
To determine the enzymatic activity and its inhibition, the accumulated Ang I was detected by an enzyme immunoassay (EIA) in 384-well plates (Nunc). 10 μL of the reaction mixture or standards were transferred to immuno plates which were previously coated with a covalent complex of Ang I and bovine serum albumin (Ang I-BSA). 70 μL assay buffer were added and the plates were incubated at 4° C. overnight. The plates were washed 3 times with PBS including 0.01% Tween 20, and then incubated for 2 h at RT with an anti rabbit-peroxidase coupled antibody (WA 934, Amersham).

Results on four compounds are retold here after patent US8343968B2, “Case of renin inhibitors” (Merck Canada Inc., priority 2007, dated 2013).

Structures are written as SMILES.

As usually defined, the IC50 is the concentration needed to halve the response being measured. Turning to `COCCCc1cc(CN(C(=O)[C@H]2CNCC[C@@H]2c2ccc(OCCOc3c(Cl)cc(C)cc3Cl)cc2)C2CC2)cc(OCC2(Cc3nn[nH]n3)CC2)c1` [Example 14, (3R,4S)—N-Cyclopropyl-4-{4-[2-(2,6-dichloro-4-methylphenoxy)ethoxy]phenyl}-N-(3-(3-methoxypropyl)-5-{[1-(2H-tetrazol-5-ylmethyl)cyclopropyl]methoxy}benzyl)-piperidine-3-carboxamide], the IC50 at human recombinant renin was 0.03 nM; in assay [1] it was 2.3 nM.

In the case of `COCCCc1cc(CN(C(=O)[C@H]2CNCC[C@@H]2c2ccc(OCCOc3c(Cl)cc(C)cc3Cl)cc2)C2CC2)cc(OCC2(CC(=O)O)CC2)c1` [Example 12, (1-{[3-({Cyclopropyl[((3R,4S)-4-{4-[2-(2,6-dichloro-4-methylphenoxy)ethoxy]-phenyl}piperidin-3-yl)carbonyl]amino}methyl)-5-(3-methoxypropyl)phenoxy]-methyl}cyclopropyl)acetic Acid], the half-maximal inhibitory concentration (IC50) was determined as 0.036 nM on human recombinant renin and 5.6 nM in assay [1].

Regarding `COCCCc1cc(CN(C(=O)[C@H]2CNCC[C@@H]2c2ccc(OCCOc3c(Cl)cc(C)cc3Cl)cc2)C2CC2)cc(OC[C@@H]2C[C@H]2C(=O)O)c1` [Example 2], the figures for the IC50 (on human recombinant renin; in assay [1]) were 0.027 nM and 1.1 nM, respectively.

For the compound `CCOC(=O)[C@@H]1C[C@H]1COc1cc(CCCOC)cc(CN(C(=O)[C@H]2CNCC[C@@H]2c2ccc(OCCOc3c(Cl)cc(C)cc3Cl)cc2)C2CC2)c1` [Example 1, Ethyl (1R,2R)-2-{[3-({cyclopropyl[((3R,4S)-4-{4-[2-(2,6-dichloro-4-methylphenoxy)-ethoxy]phenyl}piperidin-3-yl)carbonyl]amino}methyl)-5-(3-methoxypropyl)phen-oxy]methyl}cyclopropanecarboxylate], the IC50 on human recombinant renin was 0.064 nM; in assay [1], 11 nM.
